In patent US20250346585A1 (Alexion Pharmaceuticals, Inc., priority 2022, published 2025):

Target: Human complement C1s enzyme (Homo sapiens (Human), UniProt P09871)
Assay: Human C1s enzyme assay
Type: biochemical
Settings: Human C1s enzyme assay of Example 3; read-out: IC50 (Stars)
Method in brief: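 IC50 derived by nonlinear regression of rate versus concentration, with rate taken from A405 kinetics (30 s intervals, 30 min) after adding 100 μM each Z-L-Lys-SBzl and DTNB. C1s from human serum, 1.16 nM, exposed to compound for 5 min at RT beforehand; buffer 50 mM Tris, 1 M NaCl, pH 7.5.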

Human complement C1s enzyme, sequence (P09871 438-688 limits assumed): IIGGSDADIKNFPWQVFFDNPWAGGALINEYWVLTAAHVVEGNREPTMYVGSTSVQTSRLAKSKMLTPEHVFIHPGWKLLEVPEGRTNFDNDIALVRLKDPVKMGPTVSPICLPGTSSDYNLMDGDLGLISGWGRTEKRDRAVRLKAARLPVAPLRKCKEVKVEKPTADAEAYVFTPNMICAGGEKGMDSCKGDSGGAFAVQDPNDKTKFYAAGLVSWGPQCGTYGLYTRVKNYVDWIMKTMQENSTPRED
Human complement C1s enzyme, sequence (P09871 16-437 partner limits assumed): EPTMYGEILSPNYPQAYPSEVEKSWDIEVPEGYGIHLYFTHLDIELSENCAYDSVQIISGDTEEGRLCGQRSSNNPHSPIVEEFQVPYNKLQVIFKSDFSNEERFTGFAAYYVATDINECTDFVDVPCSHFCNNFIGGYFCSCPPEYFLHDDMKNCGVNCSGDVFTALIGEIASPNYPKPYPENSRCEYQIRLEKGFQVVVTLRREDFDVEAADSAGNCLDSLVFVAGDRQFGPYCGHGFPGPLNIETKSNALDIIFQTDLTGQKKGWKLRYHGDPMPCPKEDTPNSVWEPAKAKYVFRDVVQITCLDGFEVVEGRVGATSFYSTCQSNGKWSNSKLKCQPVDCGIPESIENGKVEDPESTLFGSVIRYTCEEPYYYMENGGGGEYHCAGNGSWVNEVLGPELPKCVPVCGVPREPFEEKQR

Row | SMILES | IC50
1 | C[C@@H](NC(=O)[C@@H]1C[C@H](C2CCCCC2)CN1C(=O)CNC(=O)c1ccc2c(c1)-c1ccccc1C2(F)F)c1cc(C(=N)N)cs1 [Compound 98, (2S,4R)—N—((R)-1-(4-carbamimidoylthiophen-2-yl)ethyl)-4-cyclohexyl-1-((9,9-difluoro-9H-fluorene-3-carbonyl)glycyl)pyrrolidine-2-carboxamide] | < 100 nM
2 | CC1c2ccccc2-c2cc(C(=O)NCC(=O)N3CC4(C[C@H]3C(=O)N[C@H](C)c3cc(C(=N)N)cs3)OCCO4)ccc21 (stereo partly drawn) [Compound 99, (8S)—N-[(1R)-1-(4-carbamimidoylthiophen-2-yl)ethyl]-7-{2-[(9-methyl-9H-fluoren-3-yl)formamido]acetyl}-1,4-dioxa-7-azaspiro[4.4]nonane-8-carboxamide] | < 100 nM
3 | Cc1ccc(-c2cnc(C(=O)NCC(=O)N3CC4(C[C@H]3C(=O)NCc3cc(C(=N)N)cs3)OCCO4)c(F)c2)cc1 [Compound 102, (S)—N-((4-carbamimidoylthiophen-2-yl)methyl)-7-((3-fluoro-5-(p-tolyl)picolinoyl)glycyl)-1,4-dioxa-7-azaspiro[4.4]nonane-8-carboxamide] | < 100 nM
4 | Nc1cccc(-c2csc(CNC(=O)[C@@H]3CC4(CN3C(=O)CNC(=O)c3ccc(Oc5ccc(F)cc5)cc3)OCCO4)c2)n1 [Compound 103, (S)—N-((4-(6-aminopyridin-2-yl)thiophen-2-yl)methyl)-7-((4-(4-fluorophenoxy)benzoyl)glycyl)-1,4-dioxa-7-azaspiro[4.4]nonane-8-carboxamide] | > 1000 nM
5 | Cn1ccc2cc(-c3ccc(C(=O)NCC(=O)N4CC5(C[C@H]4C(=O)NCc4cc(C(=N)N)cs4)OCCO5)cc3)ccc21 [Compound 104, (S)—N-((4-carbamimidoylthiophen-2-yl)methyl)-7-((4-(1-methyl-1H-indol-5-yl)benzoyl)glycyl)-1,4-dioxa-7-azaspiro[4.4]nonane-8-carboxamide] | < 100 nM
6 | C[C@@H](NC(=O)[C@@H]1C[C@](F)(COCCNC(=O)CC[C@H](NC(=O)CCCCCCCCCCCCCCCCC(=O)O)C(=O)O)CN1C(=O)CNC(=O)c1ccc(Oc2ccc(F)cc2)cc1)c1cc(C(=N)N)cs1 [Compound 106, 18-(((S)-4-((2-(((3R,5S)-5-(((R)-1-(4-carbamimidoylthiophen-2-yl)ethyl)carbamoyl)-3-fluoro-1-((4-(4-fluorophenoxy)benzoyl)glycyl)pyrrolidin-3-yl)methoxy)ethyl)amino)-1-carboxy-4-oxobutyl)amino)-18-oxooctadecanoic acid] | < 100 nM

The next lines start with the values.

Row | IC50 | SMILES
7 | > 1000 nM | C[C@@H](NC(=O)[C@@H]1CC2(CN1C(=O)CNC(=O)c1ccc3c(c1)-c1ccccc1C3(F)F)OCCO2)c1cc(-c2cc[nH]n2)cs1 [Compound 97, (S)—N—((R)-1-(4-(1H-pyrazol-3-yl)thiophen-2-yl)ethyl)-7-((9,9-difluoro-9H-fluorene-3-carbonyl)glycyl)-1,4-dioxa-7-azaspiro[4.4]nonane-8-carboxamide]
8 | > 1000 nM | C[C@@H](NC(=O)[C@@H]1CC2(CN1C(=O)CNC(=O)c1ccc3c(c1)-c1ccccc1C3(F)F)OCCO2)c1cc(-c2cnc(N)nc2)cs1 [Compound 100, (S)—N—((R)-1-(4-(2-aminopyrimidin-5-yl)thiophen-2-yl)ethyl)-7-((9,9-difluoro-9H-fluorene-3-carbonyl)glycyl)-1,4-dioxa-7-azaspiro[4.4]nonane-8-carboxamide]
9 | < 100 nM | C[C@@H](NC(=O)[C@@H]1CC2(CN1C(=O)CNC(=O)c1ccc(-c3ccc(F)cc3)cc1)OCCO2)c1cc(C(=N)N)cs1 [Compound 101, (S)—N—((R)-1-(4-carbamimidoylthiophen-2-yl)ethyl)-7-((4′-fluoro-[1,1′-biphenyl]-4-carbonyl)glycyl)-1,4-dioxa-7-azaspiro[4.4]nonane-8-carboxamide]
10 | < 100 nM | N=C(N)c1csc(CNC(=O)[C@@H]2CC3(CN2C(=O)CNC(=O)c2ncc(-c4ccccc4)cc2F)OCCO3)c1 [Compound 105, (S)—N-((4-carbamimidoylthiophen-2-yl)methyl)-7-((3-fluoro-5-phenylpicolinoyl)glycyl)-1,4-dioxa-7-azaspiro[4.4]nonane-8-carboxamide]
